According to ChEMBL document CHEMBL5212743, “Selectivity Literature for EUbOPEN Chemogenomics Library wave 3” (2023):

Experiments:
[1] = molecular target: Substance-P receptor (Homo sapiens) (UniProt P25103); experiment: Selectivity interaction (CEREP Wide Ligand screening panel (ion channels, receptors, enzymes)) EUB0000304b TACR1; settings: at 10 µM
[2] = molecular target: Melatonin receptor type 1B (Homo sapiens) (UniProt P49286); experiment: Selectivity interaction (CEREP Wide Ligand screening panel (ion channels, receptors, enzymes)) EUB0000304b MTNR1B; settings: at 10 µM
Mu-type opioid receptor = Mu-type opioid receptor (Homo sapiens, UniProt P35372); experiment: Selectivity interaction (CEREP Wide Ligand screening panel (ion channels, receptors, enzymes)) EUB0000304b OPRM1; settings: at 10 µM
[3] = molecular target: Gastrin/cholecystokinin type B receptor (Homo sapiens) (UniProt P32239); experiment: Selectivity interaction (CEREP Wide Ligand screening panel (ion channels, receptors, enzymes)) EUB0000304b CCKBR; settings: at 10 µM
[4] = molecular target: Muscarinic acetylcholine receptor M3 (Homo sapiens) (UniProt P20309); experiment: Selectivity interaction (CEREP Wide Ligand screening panel (ion channels, receptors, enzymes)) EUB0000304b CHRM3; settings: at 10 µM
[5] = molecular target: Sodium channel protein type 2 subunit alpha (Homo sapiens, UniProt Q99250); experiment: Selectivity interaction (CEREP Wide Ligand screening panel (ion channels, receptors, enzymes)) EUB0000304b SCN2A; settings: at 10 µM
[6] = molecular target: T1, Kappa-type opioid receptor (Homo sapiens, UniProt P41145); experiment: Selectivity interaction (CEREP Wide Ligand screening panel (ion channels, receptors, enzymes)) EUB0000304b OPRK1; settings: at 10 µM
[7] = molecular target: T2, Prostaglandin G/H synthase 2 (Homo sapiens) (UniProt P35354); experiment: Selectivity interaction (CEREP Wide Ligand screening panel (ion channels, receptors, enzymes)) EUB0000304b PTGS2; settings: at 10 µM
T2 sequence (whole entry): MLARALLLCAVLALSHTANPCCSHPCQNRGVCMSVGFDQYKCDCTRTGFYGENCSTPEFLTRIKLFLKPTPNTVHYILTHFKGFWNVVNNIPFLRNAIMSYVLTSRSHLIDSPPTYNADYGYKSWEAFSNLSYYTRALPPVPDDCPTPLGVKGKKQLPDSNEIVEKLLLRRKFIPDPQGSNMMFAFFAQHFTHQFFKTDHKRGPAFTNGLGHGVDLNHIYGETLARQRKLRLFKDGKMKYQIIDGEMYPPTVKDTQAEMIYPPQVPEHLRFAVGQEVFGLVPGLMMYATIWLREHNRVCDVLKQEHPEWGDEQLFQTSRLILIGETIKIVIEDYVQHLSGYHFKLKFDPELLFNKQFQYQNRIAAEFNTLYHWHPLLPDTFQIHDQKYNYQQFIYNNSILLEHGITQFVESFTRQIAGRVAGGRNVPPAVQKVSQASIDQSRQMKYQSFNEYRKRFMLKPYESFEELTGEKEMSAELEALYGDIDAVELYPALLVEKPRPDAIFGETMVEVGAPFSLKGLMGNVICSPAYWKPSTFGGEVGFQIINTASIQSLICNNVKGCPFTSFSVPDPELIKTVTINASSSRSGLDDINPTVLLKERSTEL

[8] = molecular target: Adenosine receptor A2b (Homo sapiens) (UniProt P29275); experiment: Selectivity interaction (CEREP Wide Ligand screening panel (ion channels, receptors, enzymes)) EUB0000304b ADORA2B; settings: at 10 µM
[9] = molecular target: 5-hydroxytryptamine receptor 2B (Homo sapiens, UniProt P41595); experiment: Selectivity interaction (CEREP Wide Ligand screening panel (ion channels, receptors, enzymes)) EUB0000304b HTR2B; settings: at 10 µM
[10] = molecular target: T3, Gamma-aminobutyric acid receptor subunit alpha-1 (Homo sapiens, UniProt P14867); experiment: Selectivity interaction (GPCR panel (PDSP screen)) EUB0000304b GABRA1
T3 sequence (P14867 whole entry): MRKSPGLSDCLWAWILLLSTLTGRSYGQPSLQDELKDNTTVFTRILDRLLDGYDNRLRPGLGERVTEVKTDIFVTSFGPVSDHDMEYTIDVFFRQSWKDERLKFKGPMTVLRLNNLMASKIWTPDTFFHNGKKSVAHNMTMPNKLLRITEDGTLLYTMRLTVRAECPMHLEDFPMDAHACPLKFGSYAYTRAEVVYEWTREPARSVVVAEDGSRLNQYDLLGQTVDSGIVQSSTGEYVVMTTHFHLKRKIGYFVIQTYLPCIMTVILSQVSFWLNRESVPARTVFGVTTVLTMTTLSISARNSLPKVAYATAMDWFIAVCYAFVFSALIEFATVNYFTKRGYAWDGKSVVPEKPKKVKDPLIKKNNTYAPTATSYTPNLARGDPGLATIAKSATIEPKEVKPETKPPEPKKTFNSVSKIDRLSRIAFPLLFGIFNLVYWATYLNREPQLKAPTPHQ

[11] = molecular target: High affinity choline transporter 1 (Homo sapiens) (UniProt Q9GZV3); experiment: Selectivity interaction (CEREP Wide Ligand screening panel (ion channels, receptors, enzymes)) EUB0000304b SLC5A7; settings: at 10 µM
[12] = molecular target: Histone-lysine N-methyltransferase SETD2 (Homo sapiens, UniProt Q9BYW2); experiment: Selectivity interaction (Methyltransferase panel) EUB0000196bCl SETD2
[13] = molecular target: Protein arginine N-methyltransferase 5 (Homo sapiens, UniProt O14744); experiment: Selectivity interaction (Methyltransferase panel) EUB0000196bCl PRMT5
[14] = molecular target: Protein arginine N-methyltransferase 1 (Homo sapiens, UniProt Q99873); experiment: Selectivity interaction (Methyltransferase panel) EUB0000196bCl PRMT1
[15] = molecular target: Histone-lysine N-methyltransferase 2A (Homo sapiens, UniProt Q03164); experiment: Selectivity interaction (Methyltransferase panel) EUB0000196bCl MLL
[16] = molecular target: Histone-lysine N-methyltransferase SETDB1 (Homo sapiens, UniProt Q15047); experiment: Selectivity interaction (Methyltransferase panel) EUB0000196bCl SETDB1
[17] = molecular target: Histone-lysine N-methyltransferase KMT5B (Homo sapiens, UniProt Q4FZB7); experiment: Selectivity interaction (Methyltransferase panel) EUB0000196bCl SUV420H1
[18] = molecular target: T1, Kappa-type opioid receptor; experiment: Selectivity interaction (Enzyme panel (ion channels, GPCRs, other targets)) EUB0000196bCl OPRK1
[19] = molecular target: Histone-lysine N-methyltransferase NSD2 (Homo sapiens, UniProt O96028); experiment: Selectivity interaction (Methyltransferase panel) EUB0000196bCl NSD2
[20] = molecular target: Histone-lysine N-methyltransferase, H3 lysine-79 specific (Homo sapiens, UniProt Q8TEK3); experiment: Selectivity interaction (Methyltransferase panel) EUB0000196bCl DOT1L
[21] = molecular target: Bombesin receptor subtype-3 (Homo sapiens, UniProt P32247); experiment: Selectivity interaction (Enzyme panel (ion channels, GPCRs, other targets)) EUB0000196bCl BRS3
[22] = molecular target: T4, Histone-lysine N-methyltransferase SETD7 (Homo sapiens, UniProt Q8WTS6); experiment: Selectivity interaction (ITC) EUB0000196bCl SETD7
T4 sequence (Q8WTS6 whole entry): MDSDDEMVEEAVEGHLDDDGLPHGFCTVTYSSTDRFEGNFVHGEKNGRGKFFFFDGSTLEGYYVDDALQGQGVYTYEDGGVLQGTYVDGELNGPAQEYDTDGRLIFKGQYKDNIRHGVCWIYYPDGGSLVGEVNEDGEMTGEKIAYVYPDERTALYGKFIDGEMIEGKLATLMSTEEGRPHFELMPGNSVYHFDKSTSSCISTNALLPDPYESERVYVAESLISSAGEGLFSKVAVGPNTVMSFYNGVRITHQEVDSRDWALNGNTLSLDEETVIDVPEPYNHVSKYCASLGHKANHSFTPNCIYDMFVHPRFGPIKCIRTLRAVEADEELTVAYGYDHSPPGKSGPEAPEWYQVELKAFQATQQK

[23] = molecular target: Protein arginine N-methyltransferase 3 (Homo sapiens, UniProt O60678); experiment: Selectivity interaction (Methyltransferase panel) EUB0000196bCl PRMT3
[24] = molecular target: Histone-lysine N-methyltransferase EZH2 (Homo sapiens, UniProt Q15910); experiment: Selectivity interaction (Methyltransferase panel) EUB0000196bCl EZH2
[25] = molecular target: Histone-lysine N-methyltransferase SUV39H2 (Homo sapiens, UniProt Q9H5I1); experiment: Selectivity interaction (Methyltransferase panel) EUB0000196bCl SUV39H2
[26] = molecular target: N-lysine methyltransferase SMYD2 (Homo sapiens, UniProt Q9NRG4); experiment: Selectivity interaction (Methyltransferase panel) EUB0000196bCl SMYD2
[27] = molecular target: T5, Histone-lysine N-methyltransferase EZH1 (Homo sapiens, UniProt Q92800); experiment: Selectivity interaction (Methyltransferase panel) EUB0000196bCl EZH1
T5 sequence (Q92800 whole entry): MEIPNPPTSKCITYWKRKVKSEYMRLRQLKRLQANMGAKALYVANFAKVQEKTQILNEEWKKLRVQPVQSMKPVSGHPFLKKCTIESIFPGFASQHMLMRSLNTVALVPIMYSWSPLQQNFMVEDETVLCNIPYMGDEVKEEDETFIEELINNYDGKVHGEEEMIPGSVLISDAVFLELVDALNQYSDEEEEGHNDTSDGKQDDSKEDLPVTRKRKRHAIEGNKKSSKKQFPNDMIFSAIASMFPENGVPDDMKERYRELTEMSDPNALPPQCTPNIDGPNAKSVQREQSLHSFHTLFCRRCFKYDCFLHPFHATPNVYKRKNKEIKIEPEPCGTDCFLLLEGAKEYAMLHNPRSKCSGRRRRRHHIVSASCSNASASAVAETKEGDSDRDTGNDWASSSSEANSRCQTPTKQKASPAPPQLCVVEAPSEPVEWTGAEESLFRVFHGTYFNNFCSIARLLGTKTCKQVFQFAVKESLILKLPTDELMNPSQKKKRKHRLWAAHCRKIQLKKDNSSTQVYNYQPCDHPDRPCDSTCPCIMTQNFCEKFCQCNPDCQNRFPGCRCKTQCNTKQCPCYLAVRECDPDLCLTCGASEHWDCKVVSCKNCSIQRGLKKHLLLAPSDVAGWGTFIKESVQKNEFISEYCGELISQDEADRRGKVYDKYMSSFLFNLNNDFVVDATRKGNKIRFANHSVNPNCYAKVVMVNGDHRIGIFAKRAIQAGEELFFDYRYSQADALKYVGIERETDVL

[28] = molecular target: Histone-lysine N-methyltransferase EHMT1 (Homo sapiens, UniProt Q9H9B1); experiment: Selectivity interaction (Methyltransferase panel) EUB0000196bCl EHMT1
[29] = molecular target: T6, N-lysine methyltransferase KMT5A (Homo sapiens, UniProt Q9NQR1); experiment: Selectivity interaction (Methyltransferase panel) EUB0000196bCl SETD8
T6 sequence (Q9NQR1 whole entry): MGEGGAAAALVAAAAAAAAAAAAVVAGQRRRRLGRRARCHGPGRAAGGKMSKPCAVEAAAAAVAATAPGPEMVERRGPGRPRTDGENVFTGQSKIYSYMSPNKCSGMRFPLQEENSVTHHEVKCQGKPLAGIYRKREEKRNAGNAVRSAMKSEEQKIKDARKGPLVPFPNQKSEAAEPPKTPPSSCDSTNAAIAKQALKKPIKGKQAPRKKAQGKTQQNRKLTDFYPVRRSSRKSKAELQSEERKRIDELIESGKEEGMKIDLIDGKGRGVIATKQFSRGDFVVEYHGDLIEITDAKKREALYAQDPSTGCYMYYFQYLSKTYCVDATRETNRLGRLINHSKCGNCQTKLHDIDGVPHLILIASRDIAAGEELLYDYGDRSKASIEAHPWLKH

Adenosine receptor A2b = Adenosine receptor A2b (Homo sapiens, UniProt P29275); experiment: Selectivity interaction (Enzyme panel (ion channels, GPCRs, other targets)) EUB0000196bCl ADORA2B
[30] = molecular target: DNA (cytosine-5)-methyltransferase 1 (Homo sapiens, UniProt P26358); experiment: Selectivity interaction (Methyltransferase panel) EUB0000196bCl DNMT1
[31] = molecular target: Protein arginine N-methyltransferase 8 (Homo sapiens, UniProt Q9NR22); experiment: Selectivity interaction (Methyltransferase panel) EUB0000196bCl PRMT8
[32] = molecular target: Motilin receptor (Homo sapiens) (UniProt O43193); experiment: Selectivity interaction (Enzyme panel (ion channels, GPCRs, other targets)) EUB0000196bCl MLN
[33] = molecular target: Histone-lysine N-methyltransferase EHMT2 (Homo sapiens, UniProt Q96KQ7); experiment: Selectivity interaction (Methyltransferase panel) EUB0000196bCl EHMT2
[34] = molecular target: Histone-lysine N-methyltransferase KMT5C (Homo sapiens, UniProt Q86Y97); experiment: Selectivity interaction (Methyltransferase panel) EUB0000196bCl SUV420H2
Chain of Histone-lysine N-methyltransferase KMT5C (Q86Y97 whole entry): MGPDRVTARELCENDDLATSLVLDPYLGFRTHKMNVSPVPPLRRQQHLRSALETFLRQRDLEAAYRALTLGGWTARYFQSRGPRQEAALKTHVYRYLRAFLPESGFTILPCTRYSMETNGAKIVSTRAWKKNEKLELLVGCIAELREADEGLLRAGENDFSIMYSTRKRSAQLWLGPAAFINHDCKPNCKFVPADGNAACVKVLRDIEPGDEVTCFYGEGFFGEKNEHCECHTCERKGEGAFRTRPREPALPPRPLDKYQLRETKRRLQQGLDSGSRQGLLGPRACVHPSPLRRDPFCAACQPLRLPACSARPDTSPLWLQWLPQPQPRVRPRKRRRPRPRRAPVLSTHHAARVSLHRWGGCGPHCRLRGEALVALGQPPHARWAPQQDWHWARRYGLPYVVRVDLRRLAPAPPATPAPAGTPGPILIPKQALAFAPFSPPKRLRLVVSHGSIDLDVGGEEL

T1 sequence (P41145 whole entry): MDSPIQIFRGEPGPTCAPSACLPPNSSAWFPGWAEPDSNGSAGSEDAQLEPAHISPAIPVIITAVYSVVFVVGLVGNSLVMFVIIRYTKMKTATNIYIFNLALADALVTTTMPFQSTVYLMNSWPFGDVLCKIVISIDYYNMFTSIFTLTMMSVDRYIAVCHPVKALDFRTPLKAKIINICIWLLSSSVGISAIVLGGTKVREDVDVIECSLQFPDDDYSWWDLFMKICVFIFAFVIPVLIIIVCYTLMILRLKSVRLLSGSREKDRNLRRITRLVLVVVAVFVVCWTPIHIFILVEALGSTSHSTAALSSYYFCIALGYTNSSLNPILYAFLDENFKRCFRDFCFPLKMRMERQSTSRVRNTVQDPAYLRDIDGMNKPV
Chain of Histone-lysine N-methyltransferase KMT5B (Q4FZB7 whole entry): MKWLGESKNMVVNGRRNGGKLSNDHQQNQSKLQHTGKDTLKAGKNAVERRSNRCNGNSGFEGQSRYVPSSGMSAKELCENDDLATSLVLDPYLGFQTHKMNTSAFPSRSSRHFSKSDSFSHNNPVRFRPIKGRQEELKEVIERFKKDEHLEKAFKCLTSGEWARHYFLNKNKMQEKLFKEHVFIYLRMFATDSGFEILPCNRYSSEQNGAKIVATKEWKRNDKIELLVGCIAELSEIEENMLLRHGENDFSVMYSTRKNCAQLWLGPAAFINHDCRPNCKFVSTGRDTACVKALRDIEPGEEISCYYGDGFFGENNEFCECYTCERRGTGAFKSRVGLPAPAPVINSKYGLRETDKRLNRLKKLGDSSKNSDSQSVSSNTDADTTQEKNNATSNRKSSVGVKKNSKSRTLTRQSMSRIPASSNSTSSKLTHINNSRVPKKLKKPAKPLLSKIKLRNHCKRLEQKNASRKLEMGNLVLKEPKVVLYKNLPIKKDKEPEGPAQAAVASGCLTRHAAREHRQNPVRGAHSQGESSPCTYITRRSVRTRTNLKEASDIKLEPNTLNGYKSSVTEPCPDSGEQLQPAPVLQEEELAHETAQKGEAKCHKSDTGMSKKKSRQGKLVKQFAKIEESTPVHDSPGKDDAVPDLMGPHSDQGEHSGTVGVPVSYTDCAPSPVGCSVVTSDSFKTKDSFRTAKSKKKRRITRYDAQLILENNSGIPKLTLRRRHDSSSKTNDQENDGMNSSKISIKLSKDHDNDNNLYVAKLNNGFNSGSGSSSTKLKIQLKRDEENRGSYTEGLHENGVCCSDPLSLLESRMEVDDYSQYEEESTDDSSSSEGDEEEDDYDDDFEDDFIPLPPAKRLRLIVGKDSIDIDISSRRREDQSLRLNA
Chain of Histone-lysine N-methyltransferase SUV39H2 (Q9H5I1 whole entry): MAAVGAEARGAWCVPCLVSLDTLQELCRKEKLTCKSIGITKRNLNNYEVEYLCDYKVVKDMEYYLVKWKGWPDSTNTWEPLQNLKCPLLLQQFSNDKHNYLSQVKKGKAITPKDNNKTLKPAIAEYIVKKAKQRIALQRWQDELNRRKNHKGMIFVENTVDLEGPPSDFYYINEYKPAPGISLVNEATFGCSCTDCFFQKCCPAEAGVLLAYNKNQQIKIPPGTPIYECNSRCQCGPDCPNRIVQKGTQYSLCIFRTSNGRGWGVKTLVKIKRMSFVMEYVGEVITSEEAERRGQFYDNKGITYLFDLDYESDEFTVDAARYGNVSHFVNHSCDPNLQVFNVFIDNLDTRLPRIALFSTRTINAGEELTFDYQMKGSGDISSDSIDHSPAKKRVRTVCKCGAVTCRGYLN
Chain of Protein arginine N-methyltransferase 8 (Q9NR22 whole entry): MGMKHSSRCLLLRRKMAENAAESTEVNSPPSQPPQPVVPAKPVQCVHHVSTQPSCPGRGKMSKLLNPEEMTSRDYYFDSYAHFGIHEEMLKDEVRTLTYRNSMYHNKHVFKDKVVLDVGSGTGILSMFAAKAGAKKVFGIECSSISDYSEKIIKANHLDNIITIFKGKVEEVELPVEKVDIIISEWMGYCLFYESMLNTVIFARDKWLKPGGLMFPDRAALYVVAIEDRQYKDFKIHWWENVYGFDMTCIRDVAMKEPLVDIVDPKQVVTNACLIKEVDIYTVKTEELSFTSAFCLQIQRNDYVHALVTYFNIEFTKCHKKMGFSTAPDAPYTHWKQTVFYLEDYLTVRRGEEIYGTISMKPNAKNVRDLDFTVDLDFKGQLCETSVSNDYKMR
Chain of High affinity choline transporter 1 (Homo sapiens) (Q9GZV3 whole entry): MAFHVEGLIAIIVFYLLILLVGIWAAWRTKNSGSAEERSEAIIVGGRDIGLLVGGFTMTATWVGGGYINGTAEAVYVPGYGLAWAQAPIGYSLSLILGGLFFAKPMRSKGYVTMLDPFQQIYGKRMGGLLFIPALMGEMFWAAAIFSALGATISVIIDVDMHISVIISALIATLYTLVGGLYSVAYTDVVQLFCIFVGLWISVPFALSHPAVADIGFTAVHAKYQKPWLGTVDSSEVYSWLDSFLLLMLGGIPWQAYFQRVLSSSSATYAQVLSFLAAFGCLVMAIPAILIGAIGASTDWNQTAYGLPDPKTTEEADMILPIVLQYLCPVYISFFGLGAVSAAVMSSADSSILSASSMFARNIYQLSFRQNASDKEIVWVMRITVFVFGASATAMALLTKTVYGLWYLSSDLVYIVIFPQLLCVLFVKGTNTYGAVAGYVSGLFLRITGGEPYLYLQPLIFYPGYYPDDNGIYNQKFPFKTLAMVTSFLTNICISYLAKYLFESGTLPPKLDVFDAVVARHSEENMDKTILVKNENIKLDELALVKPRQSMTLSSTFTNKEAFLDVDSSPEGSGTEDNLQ
Chain of Mu-type opioid receptor (P35372 whole entry): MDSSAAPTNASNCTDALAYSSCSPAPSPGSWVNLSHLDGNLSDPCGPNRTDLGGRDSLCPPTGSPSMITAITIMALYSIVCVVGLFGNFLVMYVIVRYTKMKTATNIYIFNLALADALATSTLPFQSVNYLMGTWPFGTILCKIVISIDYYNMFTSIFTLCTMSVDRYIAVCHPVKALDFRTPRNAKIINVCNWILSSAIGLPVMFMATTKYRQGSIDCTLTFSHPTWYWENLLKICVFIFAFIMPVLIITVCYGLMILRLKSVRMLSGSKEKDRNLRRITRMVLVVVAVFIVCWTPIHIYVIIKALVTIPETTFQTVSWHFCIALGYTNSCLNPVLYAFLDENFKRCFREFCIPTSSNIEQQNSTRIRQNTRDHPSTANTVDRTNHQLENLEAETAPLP
Chain of Protein arginine N-methyltransferase 1 (Q99873 whole entry): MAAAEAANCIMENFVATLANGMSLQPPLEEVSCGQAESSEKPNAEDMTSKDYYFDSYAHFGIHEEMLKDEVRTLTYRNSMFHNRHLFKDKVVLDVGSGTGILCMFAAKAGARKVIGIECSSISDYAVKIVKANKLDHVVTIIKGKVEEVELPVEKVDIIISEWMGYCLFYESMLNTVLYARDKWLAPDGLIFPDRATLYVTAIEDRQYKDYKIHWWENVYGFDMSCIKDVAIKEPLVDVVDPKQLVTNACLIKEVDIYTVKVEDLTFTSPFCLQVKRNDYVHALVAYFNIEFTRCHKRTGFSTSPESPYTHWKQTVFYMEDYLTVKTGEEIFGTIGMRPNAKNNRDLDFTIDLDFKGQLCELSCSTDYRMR
Chain of Protein arginine N-methyltransferase 5 (O14744 whole entry): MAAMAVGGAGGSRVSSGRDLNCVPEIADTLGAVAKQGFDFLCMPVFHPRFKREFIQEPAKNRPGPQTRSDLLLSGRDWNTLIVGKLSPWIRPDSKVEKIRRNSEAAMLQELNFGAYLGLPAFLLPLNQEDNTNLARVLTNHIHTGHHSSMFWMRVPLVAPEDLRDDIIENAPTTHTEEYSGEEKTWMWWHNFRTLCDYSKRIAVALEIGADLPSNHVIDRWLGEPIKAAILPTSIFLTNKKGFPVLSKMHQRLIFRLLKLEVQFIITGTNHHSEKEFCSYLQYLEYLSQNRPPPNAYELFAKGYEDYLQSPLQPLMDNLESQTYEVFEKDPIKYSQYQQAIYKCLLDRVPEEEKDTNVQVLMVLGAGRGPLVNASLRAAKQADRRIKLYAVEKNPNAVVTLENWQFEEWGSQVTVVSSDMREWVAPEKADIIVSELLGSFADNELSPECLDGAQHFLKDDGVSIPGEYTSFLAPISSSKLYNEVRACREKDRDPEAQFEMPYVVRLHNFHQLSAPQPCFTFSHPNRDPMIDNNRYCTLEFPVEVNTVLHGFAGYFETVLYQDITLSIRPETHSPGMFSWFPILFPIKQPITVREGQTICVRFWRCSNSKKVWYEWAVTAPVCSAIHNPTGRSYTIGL
Chain of Motilin receptor (Homo sapiens) (O43193 whole entry, looked up): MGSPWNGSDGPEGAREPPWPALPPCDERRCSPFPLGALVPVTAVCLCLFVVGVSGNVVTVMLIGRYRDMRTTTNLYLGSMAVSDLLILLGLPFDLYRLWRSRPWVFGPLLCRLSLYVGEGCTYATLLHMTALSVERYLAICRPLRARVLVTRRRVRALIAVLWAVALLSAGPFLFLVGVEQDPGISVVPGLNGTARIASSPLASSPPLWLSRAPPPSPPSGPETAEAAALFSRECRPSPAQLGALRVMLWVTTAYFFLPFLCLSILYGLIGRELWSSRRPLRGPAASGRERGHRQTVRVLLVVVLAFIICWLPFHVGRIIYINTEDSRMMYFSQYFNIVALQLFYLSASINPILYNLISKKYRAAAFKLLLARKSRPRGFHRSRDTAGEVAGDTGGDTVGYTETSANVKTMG

C[C@H](c1ccc(F)cc1)N(Cc1cccc(C(=O)O)c1)C(=O)c1cnc2ccccc2c1 [PF-05105679]
% of effect [1]: 18% | % of effect [2]: 32% | % of effect (Mu-type opioid receptor): 25% | % of effect [3]: 35% | % of effect [4]: 21% | % of effect [5]: 32% | % of effect [6]: 20% | % of effect [7]: 21% | % of effect [8]: 21% | % of effect [9]: 26% | Ki [10]: 1.02 µM | % of effect [11]: 22%

O=C([C@@H](Cc1cccc(C(F)(F)F)c1)NS(=O)(=O)c1cc(F)c2c(c1)CCNC2)N1CCCC1
EC50 [12]: > 10 µM | EC50 [13]: > 10 µM | EC50 [14]: > 10 µM | EC50 [15]: > 10 µM | EC50 [16]: > 10 µM | EC50 [17]: > 10 µM | Ki [18]: 3.8 µM | EC50 [19]: > 10 µM | EC50 [20]: > 10 µM | Ki [21]: 8.1 µM | Kd [22]: 0.018 µM | EC50 [23]: > 10 µM | EC50 [24]: > 10 µM | EC50 [25]: > 10 µM | EC50 [26]: > 10 µM | EC50 [27]: > 10 µM | EC50 [28]: > 10 µM | EC50 [29]: > 10 µM | Ki (Adenosine receptor A2b): 1.3 µM | EC50 [30]: > 10 µM | EC50 [31]: > 10 µM | Ki [32]: 7.2 µM | EC50 [33]: > 10 µM | EC50 [34]: > 10 µM
